Assay results published in patent US9376454B2, “Beta-lactamase inhibitors” (priority 2013, dated 2016).
Read-outs that look alike come from different tables or passages of the source.

Experiments:
[1] = tested on: E. coli ESBL4 expressing CTX-M-15; test: Broth microdilution MIC assay, E. coli CTX-M-15; assay type: cell-based; settings: E. coli expressing Class A ESBL CTX-M-15
SHV-5 β-lactamase = target: T1, SHV-5 β-lactamase (Klebsiella pneumoniae, UniProt P0A3M1); test: β-Lactamase inhibition enzyme assay, SHV-5; assay type: biochemical
T1 construct: made in house; host or cells: E. coli BL21(DE3)
T1 sequence (P0A3M1 22-286): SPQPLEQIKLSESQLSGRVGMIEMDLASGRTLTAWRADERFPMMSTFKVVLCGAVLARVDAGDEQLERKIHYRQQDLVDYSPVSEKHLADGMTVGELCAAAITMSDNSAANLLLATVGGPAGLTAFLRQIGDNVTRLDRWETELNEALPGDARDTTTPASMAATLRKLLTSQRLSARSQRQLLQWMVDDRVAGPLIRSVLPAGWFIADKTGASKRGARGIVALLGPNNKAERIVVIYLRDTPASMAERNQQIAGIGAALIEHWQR
Outline: (§1)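 Native untagged β-lactamases from E. coli BL21(DE3) were purified and preincubated with inhibitor 15 min at 37° C. Hydrolysis was then followed as initial rates: 100 μM nitrocefin at 486 nm for p99 AmpC and OXA-1, imipenem at 300 nm for KPC-2, cefotaxime at 260 nm for SHV-5. IC50 = 50% reduction versus no-inhibitor controls.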

OXA-1 β-lactamase = target: T2, OXA-1 β-lactamase (Escherichia coli, UniProt P13661); test: β-Lactamase inhibition enzyme assay, OXA-1; assay type: biochemical
T2 construct: made in house; host or cells: E. coli BL21(DE3)
T2 sequence (P13661 26-276): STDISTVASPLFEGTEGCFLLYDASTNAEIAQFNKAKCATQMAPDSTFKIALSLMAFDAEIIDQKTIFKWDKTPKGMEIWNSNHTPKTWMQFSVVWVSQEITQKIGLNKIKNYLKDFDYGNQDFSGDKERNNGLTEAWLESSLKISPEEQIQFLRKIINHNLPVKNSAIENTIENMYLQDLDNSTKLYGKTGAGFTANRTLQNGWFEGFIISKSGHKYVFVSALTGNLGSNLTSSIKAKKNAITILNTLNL
Outline: as §1

[2] = tested on: S. aureus MSSA-7 producing penicillinase PC-1; test: Broth microdilution MIC assay, S. aureus PC-1; assay type: cell-based
[3] = target: T3, VIM-2 metallo β-lactamase (Pseudomonas aeruginosa, UniProt Q9K2N0); test: β-Lactamase inhibition enzyme assay, VIM-2; assay type: biochemical; settings: Nitrocefin 100 μM as substrate, 486 nm; 15 min at 37° C. with enzyme, PBS pH 7.4; read-out: Class B VIM-2 IC50
T3 construct: made in house; host or cells: E. coli BL21(DE3)
Outline: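 Purified untagged VIM-2, expressed in E. coli BL21(DE3), preincubated with inhibitor 15 min at 37 °C. Nitrocefin added at 100 μM final, and absorbance at 486 nm monitored for 10 min. IC50 taken as inhibitor concentration halving initial hydrolysis rate relative to uninhibited controls.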

p99 AmpC β-lactamase = target: T4, p99 AmpC β-lactamase (Enterobacter cloacae, UniProt P05364); test: β-Lactamase inhibition enzyme assay, p99 AmpC; assay type: biochemical
T4 construct: made in house; host or cells: E. coli BL21(DE3)
T4 sequence (P05364 21-381): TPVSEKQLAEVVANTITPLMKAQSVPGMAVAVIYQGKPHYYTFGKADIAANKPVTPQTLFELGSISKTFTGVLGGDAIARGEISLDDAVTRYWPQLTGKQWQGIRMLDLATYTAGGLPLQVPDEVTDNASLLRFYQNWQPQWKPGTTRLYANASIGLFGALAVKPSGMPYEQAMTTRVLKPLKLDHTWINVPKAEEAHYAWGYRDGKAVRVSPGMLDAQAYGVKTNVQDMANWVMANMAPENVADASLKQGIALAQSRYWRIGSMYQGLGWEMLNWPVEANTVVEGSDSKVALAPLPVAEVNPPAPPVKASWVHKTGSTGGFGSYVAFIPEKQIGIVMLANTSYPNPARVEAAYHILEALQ
Outline: as §1

KPC-2 β-lactamase = target: T5, KPC-2 β-lactamase (Klebsiella pneumoniae, UniProt Q9F663); test: β-Lactamase inhibition enzyme assay, KPC-2; assay type: biochemical
T5 construct: made in house; host or cells: E. coli BL21(DE3)
T5 sequence (Q9F663 25-293, looked up): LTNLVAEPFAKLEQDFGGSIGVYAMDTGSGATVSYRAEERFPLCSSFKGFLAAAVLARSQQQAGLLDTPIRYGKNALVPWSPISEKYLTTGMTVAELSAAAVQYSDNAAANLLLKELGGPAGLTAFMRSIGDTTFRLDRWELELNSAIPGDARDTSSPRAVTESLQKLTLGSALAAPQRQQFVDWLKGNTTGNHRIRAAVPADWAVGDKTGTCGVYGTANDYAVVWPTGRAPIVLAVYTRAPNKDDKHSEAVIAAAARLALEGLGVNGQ
Outline: as §1

[4] = tested on: E. cloacae 144200 expressing p99 AmpC; test: Broth microdilution MIC assay, E. cloacae P99; assay type: cell-based; settings: fixed ceftazidime 4 μg/mL; CAMHB, 16-20 hours at 37° C.
[5] = tested on: P. aeruginosa Ps296 expressing VIM-2; test: Broth microdilution MIC assay, P. aeruginosa VIM-2; assay type: cell-based; settings: P. aeruginosa expressing carbapenemase VIM-2
[6] = tested on: K. pneumoniae A-1797 expressing KPC-2 and VIM-4; test: Broth microdilution MIC assay, K. pneumoniae KPC-2 and VIM-4; assay type: cell-based; settings: K. pneumoniae expressing KPC-2 and VIM-4
[7] = Nitrocefin 100 μM as substrate, 486 nm, 15 min at 37° C. with enzyme, PBS pH 7.4, read-out: Class D OXA-1 IC50
[8] = imipenem as substrate, 300 nm, 15 min at 37° C. with enzyme, PBS pH 7.4, read-out: Class A KPC-2 IC50

CC(C)(O/N=C(\C(=O)N[C@@H]1C(=O)N2C(C(=O)[O-])=C(C[n+]3ccccc3)CS[C@H]12)c1csc(N)n1)C(=O)O [Ceftazidime]
MIC alone of partner antibiotic [1]: > 128 µg/mL

O=C(O)c1cccc2c1OB(O)[C@@H](NC(=O)C1(c3ccccc3)CCNCC1)C2 [Example 3, (R)-2-hydroxy-3-(4-phenylpiperidine-4-carboxamido)-3,4-dihydro-2H-benzo[e][1,2]oxaborinine-8-carboxylic acid]
IC50 (SHV-5 β-lactamase): 10000 to 100000 nM
IC50 (OXA-1 β-lactamase): 100 to 1000 nM
MIC of Exemplary Compounds in presence of fixed β-lactams: Fixed Pip, S. aureus MSSA-7 PC-1 ([2]; fixed piperacillin 4 μg/mL, CAMHB, 16-20 hours at 37° C.): A (A represents an MIC of the fixed β-lactam antibiotic in the presence of >32 μg/mL of a β-lactamase inhibitor of exemplary compounds)
IC50 [3]: 1000 to 10000 nM
IC50 (p99 AmpC β-lactamase): < 100 nM
IC50 (KPC-2 β-lactamase): < 100 nM

NCc1cc(CN)cc(C(=O)N[C@H]2Cc3cccc(C(=O)O)c3OB2O)c1 [Example 44, (R)-3-(3,5-bis(aminomethyl)benzamido)-2-hydroxy-3,4-dihydro-2H-benzo[e][1,2]oxaborinine-8-carboxylic acid]
MIC of Exemplary Compounds in presence of fixed β-lactams: Fixed CAZ, E. cl. 144200 p99 AmpC [4]: C (C represents the MIC in the presence of ≦4 μg/mL of a β-lactamase inhibitor of exemplary compounds)
IC50 (SHV-5 β-lactamase): 1000 to 10000 nM
IC50 (OXA-1 β-lactamase; [7]): 1000 to 10000 nM
IC50 [3]: 1000 to 10000 nM
IC50 (p99 AmpC β-lactamase): 100 to 1000 nM
IC50 (KPC-2 β-lactamase; [8]): 1000 to 10000 nM

NCCOc1ccc(CC(=O)N[C@H]2Cc3cccc(C(=O)O)c3OB2O)cc1OCCN [Example 58, (R)-3-(2-(3,4-bis(2-aminoethoxy)phenyl)acetamido)-2-hydroxy-3,4-dihydro-2H-benzo[e][1,2]oxaborinine-8-carboxylic acid]
IC50 (SHV-5 β-lactamase): < 100 nM
IC50 (OXA-1 β-lactamase; [7]): < 100 nM
IC50 [3]: 100 to 1000 nM
IC50 (p99 AmpC β-lactamase): < 100 nM
IC50 (KPC-2 β-lactamase; [8]): < 100 nM

NCCOc1ccc(CC(=O)N[C@H]2Cc3cccc(C(=O)O)c3OB2O)cc1O [Example 59, (R)-3-(2-(4-(2-aminoethoxy)-3-hydroxyphenyl)acetamido)-2-hydroxy-3,4-dihydro-2H-benzo[e][1,2]oxaborinine-8-carboxylic acid]
IC50 (SHV-5 β-lactamase): < 100 nM
IC50 (OXA-1 β-lactamase; [7]): < 100 nM
IC50 [3]: 100 to 1000 nM
IC50 (p99 AmpC β-lactamase): < 100 nM
IC50 (KPC-2 β-lactamase; [8]): < 100 nM

NCCNc1ccc(CC(=O)N[C@H]2Cc3cccc(C(=O)O)c3OB2O)cn1 [Example 60, (R)-3-(2-(6-(2-aminoethylamino)pyridin-3-yl)acetamido)-2-hydroxy-3,4-dihydro-2H-benzo[e][1,2]oxaborinine-8-carboxylic acid]
IC50 (SHV-5 β-lactamase): < 100 nM
IC50 (OXA-1 β-lactamase; [7]): < 100 nM
IC50 [3]: 100 to 1000 nM
IC50 (p99 AmpC β-lactamase): < 100 nM
IC50 (KPC-2 β-lactamase; [8]): < 100 nM

NCCNc1ccc(CC(=O)N[C@H]2Cc3cccc(C(=O)O)c3OB2O)c[n+]1[O-] [Example 61, (R)-2-(2-aminoethylamino)-5-(2-(8-carboxy-2-hydroxy-3,4-dihydro-2H-benzo[e][1,2]oxaborinin-3-ylamino)-2-oxoethyl)pyridine 1-oxide]
IC50 (SHV-5 β-lactamase): < 100 nM
IC50 (OXA-1 β-lactamase; [7]): < 100 nM
IC50 [3]: 100 to 1000 nM
IC50 (p99 AmpC β-lactamase): < 100 nM
IC50 (KPC-2 β-lactamase; [8]): < 100 nM

NCc1cc(C(=O)N[C@H]2Cc3cccc(C(=O)O)c3OB2O)cnc1CN [Example 62, (R)-3-(5,6-bis(aminomethyl)nicotinamido)-2-hydroxy-3,4-dihydro-2H-benzo[e][1,2]oxaborinine-8-carboxylic acid]
IC50 (SHV-5 β-lactamase): < 100 nM
IC50 (OXA-1 β-lactamase; [7]): < 100 nM
IC50 [3]: 100 to 1000 nM
IC50 (p99 AmpC β-lactamase): < 100 nM
IC50 (KPC-2 β-lactamase; [8]): < 100 nM

NCc1cnc(C(=O)N[C@H]2Cc3cccc(C(=O)O)c3OB2O)cc1CN [Example 63]
IC50 (SHV-5 β-lactamase): 100 to 1000 nM
IC50 (OXA-1 β-lactamase; [7]): < 100 nM
IC50 [3]: < 100 nM
IC50 (p99 AmpC β-lactamase): < 100 nM
IC50 (KPC-2 β-lactamase; [8]): < 100 nM

C[C@@H](O)[C@H]1C(=O)N2C(C(=O)O)=C(S[C@@H]3CN[C@H](C(=O)N(C)C)C3)[C@H](C)[C@H]12 [Meropenem]
MIC alone of partner antibiotic [5]: 16 µg/mL
MIC alone of partner antibiotic [6]: 64 µg/mL

CCN1CCN(C(=O)N[C@@H](C(=O)N[C@@H]2C(=O)N3[C@@H]2SC(C)(C)[C@@H]3C(=O)O)c2ccccc2)C(=O)C1=O [Piperacillin, reference compound]
MIC alone of partner antibiotic ([2]; antibiotic alone, S. aureus producing penicillinase PC-1): 64 µg/mL
